Experimental data as given in patent US9757332B2, “Gel-like composition having high ubiquinol content” (UHA Mikakuto Co., Ltd., priority 2013, dated 2017).

Assay: Observation of particles under optical microscope (Test Example I-4)
Assay type: physicochemical
Conditions: magnification of 400 times

Q: For `COc1c(O)c(C)c(C/C=C(\C)CC/C=C(\C)CC/C=C(\C)CC/C=C(\C)CC/C=C(\C)CC/C=C(\C)CC/C=C(\C)CC/C=C(\C)CC/C=C(\C)CCC=C(C)C)c(O)c1OC` [ubiquinol powder (Kaneka QH), ubiquinol], which “crystals observed under optical microscope” value is on record?
A: irregular crystal structure
